Experimental findings from patent US20100098654A1 are described below.

Each structure is given as a SMILES string.

The subject of assay [1] is human neuroblastoma cells (HTLA-230). Description: Pseudometastatic human neuroblastoma (HTLA-230) xenografted mice, survival. The format is in vivo. Conditions: HTLA-230 i.v. in nude mice, 10 mg/kg q2d×5. As to the method: Xenografts were established in mice by injecting human neuroblastoma cells (HTLA-230) intravenously at zero time point.
Four-week-old female athymic nude (nu/nu) mice were purchased from Harlan Laboratories (Harlan Italy-S.Pietro al Natisone, UD). Eight mice/group were injected with the human NB cell line, HTLA-230 (3.5×10^6 cells in 200 μl of HEPES-buffered saline) in the tail vein (i.v.) on day 0. The mice were then randomly assigned to each test group (8 mice per group). […] Control group received HEPES-buffered saline. The mice were monitored routinely for weight loss. Survival times were used as the criteria for determining treatment efficacy.

Assay [2] deals with human neuroblastoma cells (GI-LI-N). Nature of the assay: Orthotopic human neuroblastoma (GI-LI-N) xenografted mice. Type of assay: in vivo, mouse (human tumor xenograft). Here is the method:
Xenograft tumors were established in mice by injecting human neuroblastoma cells (GI-LI-N) in the adrenal gland.
Five-week-old female athymic nude (nu/nu) mice were randomly assigned to each test group (8 mice per group). Eight mice/group were anaesthetised and injected with the human NB cell line, GI-LI-N (1×10^6 cells in 15 μl of HEPES buffer), after laparatomy, in the capsule of the left adrenal gland. Mice were monitored at least two times weekly for evidence of tumor development, quantification of tumor size, and evidence of tumor-associated morbidity. […] Control group received HEPES-buffered saline. The body weight and general physical status of the animals was observed daily and any mouse was terminated when a tumor reached 1000-1200 mm^3. Survival time was used as the criteria for determining treatment efficacy.
Tumors were removed from orthotopic neuroblastoma-bearing mice at day 50. Tumor sections were immunostained for NB84 as a neuroblastoma cell marker, and Ki-67 as a tumor cell proliferation marker. Cell nuclei were stained with DAPI.
Control group received HEPES-buffered saline.

Assay [3] has as its system human neuroblastoma cells NXS2. Nature of the assay: NXS2 xenografted mice, survival. The format is in vivo. Conditions: NXS2 in A/J mice. Here is the method:
Xenograft tumors were established in immunocompetent A/J mice by injecting […] neuroblastoma cells, NXS2, in the adrenal gland.
The immunocompetent mice were injected with another […] NB cell, NXS2 of 5×10^4 cells or 5×10^5 cells in the left adrenal gland. Tumors were allowed to grow for 2 days and reached the average volume of approximately 200 mm^3. […] Control group received HEPES-buffered saline. Survival time was used as the criteria for determining treatment efficacy.

The mark [4] stands for this setting: GI-LI-N orthotopic (Example 27), 10 mg/kg q2d×5.

For `CCc1c2c(nc3ccc(OC(=O)N4CCC(N5CCCCC5)CC4)cc13)-c1cc3c(c(=O)n1C2)COC(=O)[C@]3(O)CC` [CPT-11], the mice surviving result in assay [1] is given as “None”; in assay [2] (setting [4]), “None”; in assay [2] (GI-LI-N orthotopic (Example 30), 10 mg/kg/dose day 21, 23, 25, 27, 29) it was “None”; in assay [3] (10 mg/kg/dose q2d×5) it was “None”; in assay [3] (MTD (40 mg/kg) q2d×5), “None”. Besides, the “time by which animals died” value in assay [1] (from the cancer injection) is listed as ≤ 85 days; in assay [2] (setting [4]), ≤ 80 days; in assay [2] (GI-LI-N orthotopic (Example 30), 10 mg/kg/dose), ≤ 80 days. In addition, the “effect on survival rate” value in assay [2] (GI-LI-N orthotopic (Example 30), at MTD (40 mg/kg)) is given as “slightly improved survival rate”.
